Our source for the DC50 and Dmax values is patent US12180193B2, “Accelerating fibrosarcoma protein degrading compounds and associated methods of use” (Arvinas Operations, Inc., priority 2020, dated 2024).

In assay [1] the target is T1, BRAF G466V (Homo sapiens, UniProt P15056, G466V).
T1 construct: expressed in transfected cells
The assay can be described thus: Cellular assay of target protein degradation, T-Rex 293 cells stably transfected with HA-BRAF G466V (HA immunofluorescence, high content imaging). The following applies: T-Rex 293 HA-BRAF G466V; for DC50: half maximal degradation, read-out: BRaf G466V DC50; for Dmax: maximum degradation observed. The format is cell-based. The gist of the method:
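Read-out is HA immunofluorescence by high content imaging, with Hoechst and phalloidin co-staining, giving DC50 and Dmax as a percentage of control. Compound exposure lasts 24 hours at 37° C over 30 nM to 3 pM in 0.1% DMSO, with doxycycline-induced HA-BRAF G466V.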

The target of assay [2] is T2, BRAF V600E (Homo sapiens, UniProt P15056, V600E).
T2 construct: expressed in transfected cells
The assay can be described thus: Cellular assay of target protein degradation, T-Rex 293 cells stably transfected with HA-BRAF_V600E (HA immunofluorescence, high content imaging). Type of assay: cell-based. The following applies: T-Rex 293 HA-BRAF V600E; for DC50: half maximal degradation, read-out: BRaf V600E DC50; for Dmax: maximum degradation observed. An outline of the steps: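 Cells are plated with 1 ng/mL doxycycline and grown 24 h. Compound is then added (final 1 μM–0.1 nM, 0.1% DMSO) for another 24 h at 37 °C, followed by fixing, HA immunostaining and imaging to obtain DC50 and Dmax.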

Broadly, the DC50 is the concentration at which degradation of the target reaches its halfway point. For orientation: Dmax means the largest share of the target that was removed. A high value points to a fuller loss of target.

T2 sequence (P15056 whole entry V600E): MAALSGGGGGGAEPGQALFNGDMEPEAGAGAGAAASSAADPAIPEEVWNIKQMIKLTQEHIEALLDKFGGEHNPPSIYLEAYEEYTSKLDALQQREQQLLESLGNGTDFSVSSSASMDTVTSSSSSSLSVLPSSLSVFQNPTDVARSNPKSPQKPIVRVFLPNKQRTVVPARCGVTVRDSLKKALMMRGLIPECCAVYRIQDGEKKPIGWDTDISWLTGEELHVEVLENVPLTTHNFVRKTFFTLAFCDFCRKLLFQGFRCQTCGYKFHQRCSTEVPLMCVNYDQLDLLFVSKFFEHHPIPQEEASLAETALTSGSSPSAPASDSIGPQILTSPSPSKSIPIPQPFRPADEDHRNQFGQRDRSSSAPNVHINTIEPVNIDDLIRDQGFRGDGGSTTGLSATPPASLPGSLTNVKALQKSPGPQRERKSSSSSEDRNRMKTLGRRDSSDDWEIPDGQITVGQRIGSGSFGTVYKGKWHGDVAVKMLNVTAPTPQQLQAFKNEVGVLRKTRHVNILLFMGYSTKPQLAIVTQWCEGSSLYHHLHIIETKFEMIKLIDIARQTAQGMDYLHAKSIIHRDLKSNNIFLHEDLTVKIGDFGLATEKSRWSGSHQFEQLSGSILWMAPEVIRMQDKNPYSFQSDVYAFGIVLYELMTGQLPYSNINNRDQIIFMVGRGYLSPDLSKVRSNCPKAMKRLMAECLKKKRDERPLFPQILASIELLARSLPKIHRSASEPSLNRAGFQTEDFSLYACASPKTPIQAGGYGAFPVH
T1 sequence (P15056 whole entry G466V): as the sequence (P15056 whole entry V600E) above, with G466V, E600V counted along it

As for `CN(CCO)S(=O)(=O)Nc1ccc(F)c(C(=O)c2c[nH]c3ncc(-c4ccc(N5CCC(CN6CCC(c7ccc8c(c7)CN([C@H]7CCC(=O)NC7=O)C8=O)CC6)CC5)cc4)cc23)c1F` [Compound 280, (3S)-3-(5-{1-[(1-{4-[3-(2,6-difluoro-3-{[(2-hydroxyethyl)(methyl)sulfamoyl]amino}benzoyl)-1H-pyrrolo[2,3-b]pyridin-5-yl]phenyl}piperidin-4-yl)methyl]piperidin-4-yl}-1-oxo-2,3-dihydro-1H-isoindol-2-yl) piperidine-2,6-dione], in assay [1], the DC50 fell in the range of 1 to 10 nM and the maximal degradation (Dmax) was 35 to 70%. Moreover, in assay [2], the DC50 is 5 to 50 nM and the Dmax lay in the range of 35 to 70%.
`CN(C1CC1)S(=O)(=O)Nc1ccc(F)c(C(=O)c2c[nH]c3ncc(-c4ccc(N5CCC(CN6CCC(c7ccc8c(c7)CN([C@H]7CCC(=O)NC7=O)C8=O)CC6)CC5)cc4)cc23)c1F` [Compound 281, (3S)-3-(5-{1-[(1-{4-[3-(3-{[cyclopropyl(methyl)sulfamoyl]amino}-2,6-difluorobenzoyl)-1H-pyrrolo[2,3-b]pyridin-5-yl]phenyl}piperidin-4-yl)methyl]piperidin-4-yl}-1-oxo-2,3-dihydro-1H-isoindol-2-yl) piperidine-2,6-dione]: the DC50 in assay [1] fell in the range of 1 to 10 nM; in assay [2] it was 5 to 50 nM. For the same compound, the Dmax in assay [1] and in assay [2] was 35 to 70% in each case.
Regarding `O=C1CC[C@H](N2Cc3cc(C4CCN(CC5CCN(c6ccc(-c7cnc8[nH]cc(C(=O)c9c(F)ccc(NS(=O)(=O)CCO)c9F)c8c7)cc6)CC5)CC4)ccc3C2=O)C(=O)N1` [Compound 282, N-{3-[5-(4-{4-[(4-{2-[(3S)-2,6-dioxopiperidin-3-yl]-1-oxo-2,3-dihydro-1H-isoindol-5-yl}piperidin-1-yl)methyl]piperidin-1-yl}phenyl)-1H-pyrrolo[2,3-b]pyridine-3-carbonyl]-2,4-difluorophenyl}-2-hydroxyethane-1-sulfonamide], in assay [1], the 50% degradation concentration (DC50) fell in the range of 1 to 10 nM and the greatest degradation seen (Dmax) was more than 70%. Further, in assay [2], the half-maximal degradation concentration (DC50) lay in the range of 50 to 500 nM and the Dmax was in the range of 35 to 70%.
The matching figures for `COc1c(NS(=O)(=O)N2CC[C@@H](F)C2)ccc(F)c1C(=O)c1c[nH]c2ncc(-c3ccc(N4CCC(CN5CCC(c6ccc7c(c6)CN(C6CCC(=O)NC6=O)C7=O)CC5)CC4)cc3)cc12` (stereo partly drawn) [Compound 283, (3R)-N-[3-(5-{4-[4-({4-[2-(2,6-dioxopiperidin-3-yl)-1-oxo-2,3-dihydro-1H-isoindol-5-yl]piperidin-1-yl}methyl)piperidin-1-yl]phenyl}-1H-pyrrolo[2,3-b]pyridine-3-carbonyl)-4-fluoro-2-methoxyphenyl]-3-fluoropyrrolidine-1-sulfonamide]: 1 to 10 nM, more than 70%, 5 to 50 nM and 35 to 70%.
Turning to `CNc1cc(-c2cnc3[nH]cc(C(=O)c4c(F)ccc(NS(=O)(=O)N5CC[C@@H](F)C5)c4F)c3c2)cc(NC)c1N1CCC(CN2CCC(c3ccc4c(c3)CN([C@H]3CCC(=O)NC3=O)C4=O)CC2)CC1` [Compound 284, (3R)-N-{3-[5-(4-{4-[(4-{2-[(3S)-2,6-dioxopiperidin-3-yl]-1-oxo-2,3-dihydro-1H-isoindol-5-yl}piperidin-1-yl)methyl]piperidin-1-yl}-3,5-bis(methylamino)phenyl)-1H-pyrrolo[2,3-b]pyridine-3-carbonyl]-2,4-difluorophenyl}-3-fluoropyrrolidine-1-sulfonamide], the DC50 is 1 to 10 nM in assay [1] and 5 to 50 nM in assay [2]. Besides, the maximal degradation (Dmax) was more than 70% in assay [1] and 35 to 70% in assay [2].
For the compound `CNc1cc(-c2cnc3[nH]cc(C(=O)c4c(F)ccc(NS(=O)(=O)N5CC[C@@H](F)C5)c4F)c3c2)cc(NC)c1N1CCC(CN2CCC(c3ccc4c(c3)CN(C3CCC(=O)NC3=O)C4=O)CC2)CC1` (stereo partly drawn) [Compound 285, (3R)-N-[3-(5-{4-[4-({4-[2-(2,6-dioxopiperidin-3-yl)-1-oxo-2,3-dihydro-1H-isoindol-5-yl]piperidin-1-yl}methyl)piperidin-1-yl]-3,5-bis(methylamino)phenyl}-1H-pyrrolo[2,3-b]pyridine-3-carbonyl)-2,4-difluorophenyl]-3-fluoropyrrolidine-1-sulfonamide], in assay [1], the DC50 is 1 to 10 nM and the greatest degradation seen (Dmax) lay within 35 to 70%. In addition, in assay [2], the half-maximal degradation concentration (DC50) lay within 5 to 50 nM and the greatest degradation seen (Dmax) is less than 35%.
Regarding `O=C1CC[C@@H](N2Cc3cc(N4CC(CN5CCN(C6(c7ncc(-c8cnc9[nH]cc(C(=O)c%10c(F)ccc(NS(=O)(=O)N%11CC[C@@H](F)C%11)c%10F)c9c8)cn7)CC6)CC5)C4)ccc3C2=O)C(=O)N1` [Compound 286, (3R)-N-(3-{5-[2-(1-{4-[(1-{2-[(3R)-2,6-dioxopiperidin-3-yl]-1-oxo-2,3-dihydro-1H-isoindol-5-yl}azetidin-3-yl)methyl]piperazin-1-yl}cyclopropyl)pyrimidin-5-yl]-1H-pyrrolo[2,3-b]pyridine-3-carbonyl}-2,4-difluorophenyl)-3-fluoropyrrolidine-1-sulfonamide], in assay [1], the half-maximal degradation concentration (DC50) was 1 to 10 nM and the Dmax fell in the range of 35 to 70%. Moreover, in assay [2], the DC50 was 50 to 500 nM and the Dmax was 35 to 70%.
As for `CN(c1ncc(-c2cnc3[nH]cc(C(=O)c4c(F)ccc(NS(=O)(=O)N5CC[C@@H](F)C5)c4F)c3c2)cn1)C1CCN(CC2CCN(c3ccc4c(c3)CN([C@H]3CCC(=O)NC3=O)C4=O)CC2)CC1` [Compound 287, (3R)-N-(3-{5-[2-({1-[(1-{2-[(3S)-2,6-dioxopiperidin-3-yl]-1-oxo-2,3-dihydro-1H-isoindol-5-yl}piperidin-4-yl)methyl]piperidin-4-yl}(methyl)amino)pyrimidin-5-yl]-1H-pyrrolo[2,3-b]pyridine-3-carbonyl}-2,4-difluorophenyl)-3-fluoropyrrolidine-1-sulfonamide], in assay [1], the DC50 lay within 1 to 10 nM and the maximal degradation (Dmax) is 35 to 70%. Also, in assay [2], the DC50 was in the range of 5 to 50 nM and the Dmax fell in the range of 35 to 70%.
Consider `O=C1CC[C@H](N2Cc3cc(N4CCC(CN5CCN(C6(c7ccc(-c8cnc9[nH]cc(C(=O)c%10c(F)ccc(NS(=O)(=O)N%11CC[C@@H](F)C%11)c%10F)c9c8)cn7)CC6)CC5)CC4)ccc3C2=O)C(=O)N1` [Compound 288, (3R)-N-(3-{5-[6-(1-{4-[(1-{2-[(3S)-2,6-dioxopiperidin-3-yl]-1-oxo-2,3-dihydro-1H-isoindol-5-yl}piperidin-4-yl)methyl]piperazin-1-yl}cyclopropyl)pyridin-3-yl]-1H-pyrrolo[2,3-b]pyridine-3-carbonyl}-2,4-difluorophenyl)-3-fluoropyrrolidine-1-sulfonamide], for which the DC50 in assay [1] is more than 30 nM; in assay [2] it was 50 to 500 nM. Also, the figures for the maximal degradation (Dmax) in assay [1] and in assay [2] were more than 70% and 35 to 70%, respectively.
The matching figures for `C[C@@H](c1ncc(-c2cnc3[nH]cc(C(=O)c4c(F)ccc(NS(=O)(=O)N5CC[C@@H](F)C5)c4F)c3c2)cn1)N1CCN(CC2CCN(c3ccc4c(c3)CN([C@H]3CCC(=O)NC3=O)C4=O)CC2)CC1` [Compound 289, (3R)-N-[3-(5-{2-[(1S)-1-{4-[(1-{2-[(3S)-2,6-dioxopiperidin-3-yl]-1-oxo-2,3-dihydro-1H-isoindol-5-yl}piperidin-4-yl)methyl]piperazin-1-yl}ethyl]pyrimidin-5-yl}-1H-pyrrolo[2,3-b]pyridine-3-carbonyl)-2,4-difluorophenyl]-3-fluoropyrrolidine-1-sulfonamide]: 10 to 30 nM, 50 to 500 nM, 35 to 70% and 35 to 70%.
Regarding `C[C@H](c1ncc(-c2cnc3[nH]cc(C(=O)c4c(F)ccc(NS(=O)(=O)N5CC[C@@H](F)C5)c4F)c3c2)cn1)N1CCN(CC2CCN(c3ccc4c(c3)CN([C@H]3CCC(=O)NC3=O)C4=O)CC2)CC1` [Compound 290, (3R)-N-[3-(5-{2-[(1R)-1-{4-[(1-{2-[(3S)-2,6-dioxopiperidin-3-yl]-1-oxo-2,3-dihydro-1H-isoindol-5-yl}piperidin-4-yl)methyl]piperazin-1-yl}ethyl]pyrimidin-5-yl}-1H-pyrrolo[2,3-b]pyridine-3-carbonyl)-2,4-difluorophenyl]-3-fluoropyrrolidine-1-sulfonamide], in assay [1], the DC50 is 1 to 10 nM and the Dmax was in the range of 35 to 70%. Further, in assay [2], the 50% degradation concentration (DC50) lay in the range of 50 to 500 nM and the Dmax was 35 to 70%.
Regarding `O=C1CCC(N2Cc3cc(N4CCC(C5CN(c6ccc(-c7cnc8[nH]cc(C(=O)c9c(F)ccc(NS(=O)(=O)N%10CC[C@@H](F)C%10)c9F)c8c7)cc6)C5)CC4)ccc3C2=O)C(=O)N1` (stereo partly drawn) [Compound 293, (3R)-N-(3-{5-[4-(3-{1-[2-(2,6-dioxopiperidin-3-yl)-1-oxo-2,3-dihydro-1H-isoindol-5-yl]piperidin-4-yl}azetidin-1-yl)phenyl]-1H-pyrrolo[2,3-b]pyridine-3-carbonyl}-2,4-difluorophenyl)-3-fluoropyrrolidine-1-sulfonamide], in assay [1], the half-maximal degradation concentration (DC50) is 1 to 10 nM and the Dmax was 35 to 70%. Moreover, in assay [2], the DC50 fell in the range of 50 to 500 nM and the greatest degradation seen (Dmax) lay within 35 to 70%.
Turning to `O=C1CCC(N2Cc3cc(CCCOCC4CCN(c5ccc(-c6cnc7[nH]cc(C(=O)c8c(F)ccc(NS(=O)(=O)N9CC[C@@H](F)C9)c8F)c7c6)cc5)CC4)ccc3C2=O)C(=O)N1` (stereo partly drawn) [Compound 294, (3R)-N-[3-(5-{4-[4-({3-[2-(2,6-dioxopiperidin-3-yl)-1-oxo-2,3-dihydro-1H-isoindol-5-yl]propoxy}methyl)piperidin-1-yl]phenyl}-1H-pyrrolo[2,3-b]pyridine-3-carbonyl)-2,4-difluorophenyl]-3-fluoropyrrolidine-1-sulfonamide], in assay [1], the DC50 fell in the range of 1 to 10 nM and the maximal degradation (Dmax) is 35 to 70%. Moreover, in assay [2], the DC50 lay within 50 to 500 nM and the Dmax was in the range of 35 to 70%.
